Tested on: Human Cav2.3 channel
Experiment: Human Cav2.3 channel calcium-influx assay
Assay type: cell-based
Details: Fluo8 fluorescence, HEK-293 T-Rex/Kir2.1/Cav2.3e cells, without pluronic acid
Experimental: HEK-293 T-Rex cells were transfected with pcDNA3.1-Kir2.1 to generate a stable cell line. After antibiotic selection, the obtained stable pools were analysed using FLIPR^TETRA (membrane potential assay), and a limiting dilution was performed and a HEK-293 T-Rex/Kir2.1 clone was selected. The clone was transfected with pcDNA3.1-Cav2.3e and pBud-Cav-β4-α2δ1 to generate a stable cell line where the Cav2.3e expression is inducible. After antibiotic selection, functional clone pool analysis and two successive limiting dilutions, the final clone underwent a qPCR analysis and a biophysical and pharmacological validation using patch-clamp.
A compound plate, containing 10 test compounds in eight-points dose response with n=4, was prepared. Test compounds dose response curves were prepared in automated fashion in 100% DMSO at CyBio Felix and starting from a stock solution in 100% DMSO; a defined volume was serially moved into destination wells pre-filled with the desired DMSO volume; stock solution concentration volumes were dependent on the final compounds concentrations to be tested and the final DMSO content used in the assay. For the assay test compounds dose response curves ranged from 30 μM and half log dilution with 0.3% final DMSO. In order to obtain the 8-points dose response curve all the concentrations were created by starting from a 10 mM DMSO stock solution and then moving 9.5 μL into a destination well pre-filled with 20.5 μL of 100% DMSO and repeating this step seven times. This initial step was done into 96 MTP plates, 10 compounds/plate. One 384 MTP was then reformatted to contain all the 10 compounds at 8 concentrations, quadruplicate data points. This so obtained 384 MTP compound plate served as source plate in a “mother to child” process with a CyBi®-Well dispenser in which 0.7 μL of compounds were moved into a destination plate pre-filled with 57.6 μL of Tyrode's buffer 0 mM K+, thus obtaining 4× concentrated compounds solution. In columns 1-2 and 23-24 the control wells were added. Both “source” compound plate and “destination” compound plate were barcoded and a relationship between the two plates was thus generated.
The day before the experiment, cells were detached by gentle wash with DPBS, followed by 5 min incubation at 37° C. with Trypsin solution. Detached cells were diluted with OptiMEM+Doxycycline at 0.2 μg/mL, counted and plated in Poly-D-Lysine coated black/clear bottom (15.000 c/well in 20 μl/well) by the use of a MATRIX WellMate dispenser. Plates were placed into a humidified incubator at 37° C. with 5% CO2 until the experimental day. 24 h after seeding 10 μL/well of 1.5× Fluo8 NW dye solution prepared in Tyrode's buffer 0 mM K* were added on top of the seeding medium. Cell plates were incubated for 40-60 min at RT in the dark. We then Injected off-line 10 μL/well of test compounds and controls 4× concentrated in Tyrode's Buffer 0 mM K+ with the CyBi®-Well instrument. Cell plates were incubated 3 minutes at RT. Finally, we injected 20 μL/well of 3× concentrated activator solution (K20-Na130-Ca2 buffer: 20 mM KCl, 130 mM NaCl, 2 mM CaCl2, 10 mM HEPES, 10 mM Glucose, final concentrations, prepared starting from “K0-Na150-Ca2” and “K150-Na0-Ca2” buffers) at FDSS7000EX instrument and read emitted fluorescence for 130 seconds.
Data analysis was performed with Genedata Screener® software and reported compounds activity as % effect in relation to the normalization standards. The Kinetic Response Value (KRV) is calculated as follows:
KRV=Maximal fluorescence recorded from second 5 to second 130 minus baseline fluorescence, computed as average from second 1 to second 2, of the kinetic trace. The KRV was normalized versus Neutral Controls and Inhibitor Controls in order to obtain the Activity[%] for each well. […] Therefore, the compound activity values were scaled (based on the two references) to a common range (two-point normalization). […]

CCN(C(c1ccccc1C)C(F)(F)F)S(=O)(=O)c1cncc(C#N)c1 (centres unmarked) [Example 86, 5-cyano-N-ethyl-N-(2,2,2-trifluoro-1-(o-tolyl)ethyl)pyridine-3-sulfonamide]
Cav2.3 (pIC50): 5.95

CCN(C(c1ccc(F)cc1)C(F)(F)F)S(=O)(=O)c1ccc(C2=CCOCC2)s1 (centres unmarked) [Example 87, 5-(3,6-Dihydro-2H-pyran-4-yl)-N-ethyl-N-(2,2,2-trifluoro-1-(4-fluorophenyl)ethyl)thiophene-2-sulfonamide]
Cav2.3 (pIC50): 5.50

CCN(C(c1ccc(F)cc1)C(F)(F)F)S(=O)(=O)c1ccc(C2CCOCC2)s1 (centres unmarked) [Example 88, N-ethyl-5-(tetrahydro-2H-pyran-4-yl)-N-(2,2,2-trifluoro-1-(4-fluorophenyl)ethyl)thiophene-2-sulfonamide]
Cav2.3 (pIC50): 5.60

CCN(C(c1ccc(F)cc1)C(F)(F)F)S(=O)(=O)c1ccc(N2CCOCC2)s1 (centres unmarked) [Example 89, N-ethyl-5-morpholino-N-(2,2,2-trifluoro-1-(4-fluorophenyl)ethyl)thiophene-2-sulfonamide]
Cav2.3 (pIC50): 5.68

CCN([C@H](c1ccc(F)cc1)C(F)(F)F)S(=O)(=O)c1ccc(N2CCOCC2)s1 [Example 90, (R)—N-ethyl-5-morpholino-N-(2,2,2-trifluoro-1-(4-fluorophenyl)ethyl)thiophene-2-sulfonamide]
Cav2.3 (pIC50): 6.20

CCN([C@@H](c1ccc(F)cc1)C(F)(F)F)S(=O)(=O)c1ccc(N2CCOCC2)s1 [Example 91, (S)—N-ethyl-5-morpholino-N-(2,2,2-trifluoro-1-(4-fluorophenyl)ethyl)thiophene-2-sulfonamide]
Cav2.3 (pIC50): 5.37

CCN(C(c1ccc(F)cc1)C(F)(F)F)S(=O)(=O)c1cncc(N2CCOCC2)c1 (centres unmarked) [Example 93, N-ethyl-5-morpholino-N-(2,2,2-trifluoro-1-(4-fluorophenyl)ethyl)pyridine-3-sulfonamide]
Cav2.3 (pIC50): 6.53

CCN(C(c1ccc(F)cc1)C(F)(F)F)S(=O)(=O)c1cncc(N2CCCC2)c1 (centres unmarked) [Example 94, N-ethyl-5-(pyrrolidin-1-yl)-N-(2,2,2-trifluoro-1-(4-fluorophenyl)ethyl)pyridine-3-sulfonamide]
Cav2.3 (pIC50): 5.85

CCN([C@@H](c1ccc(F)cc1)C(F)(F)F)S(=O)(=O)c1cncc(N2CCOCC2)c1 [Example 95, (S)—N-ethyl-5-morpholino-N-(2,2,2-trifluoro-1-(4-fluorophenyl)ethyl)pyridine-3-sulfonamide]
Cav2.3 (pIC50): 5.62

CCN([C@@H](c1ccc(F)cc1)C(F)(F)F)S(=O)(=O)c1cncc(N2CCCC2)c1 [Example 97, (S)—N-ethyl-5-(pyrrolidin-1-yl)-N-(2,2,2-trifluoro-1-(4-fluorophenyl)ethyl)pyridine-3-sulfonamide]
Cav2.3 (pIC50): 5.22

CCN([C@H](c1ccc(F)cc1)C(F)(F)F)S(=O)(=O)c1cncc(N2CCCC2)c1 [Example 98, (R)—N-ethyl-5-(pyrrolidin-1-yl)-N-(2,2,2-trifluoro-1-(4-fluorophenyl)ethyl)pyridine-3-sulfonamide]
Cav2.3 (pIC50): 5.80

CCN(C(c1ccc(F)cc1)C(F)(F)F)S(=O)(=O)c1ccn(C)c(=O)c1 (centres unmarked) [Example 103, N-ethyl-1-methyl-2-oxo-N-(2,2,2-trifluoro-1-(4-fluorophenyl)ethyl)-1,2-dihydropyridine-4-sulfonamide]
Cav2.3 (pIC50): 6.50

CCN(C(c1ccc(C)cc1)C(F)(F)F)S(=O)(=O)c1cncc(C#N)c1 (centres unmarked) [Example 104, 5-Cyano-N-ethyl-N-(2,2,2-trifluoro-1-(p-tolyl)ethyl)pyridine-3-sulfonamide]
Cav2.3 (pIC50): 7.24

CCN([C@@H](c1ccc(C)cc1)C(F)(F)F)S(=O)(=O)c1cncc(C#N)c1 [Example 105, (S)-5-Cyano-N-ethyl-N-(2,2,2-trifluoro-1-(p-tolyl)ethyl)pyridine-3-sulfonamide]
Cav2.3 (pIC50): 5.38

CCN([C@H](c1ccc(C)cc1)C(F)(F)F)S(=O)(=O)c1cncc(C#N)c1 [Example 106, (R)-5-Cyano-N-ethyl-N-(2,2,2-trifluoro-1-(p-tolyl)ethyl)pyridine-3-sulfonamide]
Cav2.3 (pIC50): 7.51

CCN(C(c1ccccc1OC)C(F)(F)F)S(=O)(=O)c1cncc(C#N)c1 (centres unmarked) [Example 107, 5-Cyano-N-ethyl-N-(2,2,2-trifluoro-1-(2-methoxyphenyl)ethyl)pyridine-3-sulfonamide]
Cav2.3 (pIC50): 5.08

CCN([C@@H](c1ccccc1OC)C(F)(F)F)S(=O)(=O)c1cncc(C#N)c1 [Example 108, (S)-5-cyano-N-ethyl-N-(2,2,2-trifluoro-1-(2-methoxyphenyl)ethyl)pyridine-3-sulfonamide]
Cav2.3 (pIC50): 4.30

CCN([C@H](c1ccccc1OC)C(F)(F)F)S(=O)(=O)c1cncc(C#N)c1 [Example 109, (R)-5-cyano-N-ethyl-N-(2,2,2-trifluoro-1-(2-methoxyphenyl)ethyl)pyridine-3-sulfonamide]
Cav2.3 (pIC50): 4.59

CCN(C(c1cccc(F)c1)C(F)(F)F)S(=O)(=O)c1cncc(C#N)c1 (centres unmarked) [Example 110, 5-Cyano-N-ethyl-N-(2,2,2-trifluoro-1-(3-fluorophenyl)ethyl)pyridine-3-sulfonamide]
Cav2.3 (pIC50): 7.11

CCN([C@H](c1cccc(F)c1)C(F)(F)F)S(=O)(=O)c1cncc(C#N)c1 [Example 111, (R)-5-Cyano-N-ethyl-N-(2,2,2-trifluoro-1-(3-fluorophenyl)ethyl)pyridine-3-sulfonamide]
Cav2.3 (pIC50): 7.63

CCN([C@@H](c1cccc(F)c1)C(F)(F)F)S(=O)(=O)c1cncc(C#N)c1 [Example 112, (S)-5-cyano-N-ethyl-N-(2,2,2-trifluoro-1-(3-fluorophenyl)ethyl)pyridine-3-sulfonamide]
Cav2.3 (pIC50): 5.95

CCN(C(c1cccc(C)c1)C(F)(F)F)S(=O)(=O)c1cncc(C#N)c1 (centres unmarked) [Example 113, 5-Cyano-N-ethyl-N-(2,2,2-trifluoro-1-(m-tolyl)ethyl)pyridine-3-sulfonamide]
Cav2.3 (pIC50): 6.96

CCN([C@H](c1cccc(C)c1)C(F)(F)F)S(=O)(=O)c1cncc(C#N)c1 [Example 114, (R)-5-cyano-N-ethyl-N-(2,2,2-trifluoro-1-(m-tolyl)ethyl)pyridine-3-sulfonamide]
Cav2.3 (pIC50): 6.87

CCN([C@@H](c1cccc(C)c1)C(F)(F)F)S(=O)(=O)c1cncc(C#N)c1 [Example 115, (S)-5-cyano-N-ethyl-N-(2,2,2-trifluoro-1-(m-tolyl)ethyl)pyridine-3-sulfonamide]
Cav2.3 (pIC50): 5.44

CCN([C@H](c1ccccc1F)C(F)(F)F)S(=O)(=O)c1cncc(C#N)c1 [Example 116, (R)-5-Cyano-N-ethyl-N-(2,2,2-trifluoro-1-(2-fluorophenyl)ethyl)pyridine-3-sulfonamide]
Cav2.3 (pIC50): 5.81

CCN([C@@H](c1ccccc1F)C(F)(F)F)S(=O)(=O)c1cncc(C#N)c1 [Example 117, (S)-5-cyano-N-ethyl-N-(2,2,2-trifluoro-1-(2-fluorophenyl)ethyl)pyridine-3-sulfonamide]
Cav2.3 (pIC50): 5.38

CCN(C(c1ccc(OC)cc1)C(F)(F)F)S(=O)(=O)C1CCOCC1 (centres unmarked) [Example 124, N-ethyl-N-(2,2,2-trifluoro-1-(4-methoxyphenyl)ethyl)tetrahydro-2H-pyran-4-sulfonamide]
Cav2.3 (pIC50): 6.11

COc1ccc(C(N(C)S(=O)(=O)C2CCOCC2)C(F)(F)F)cc1 (centres unmarked) [Example 125, N-methyl-N-(2,2,2-trifluoro-1-(4-methoxyphenyl)ethyl)tetrahydro-2H-pyran-4-sulfonamide]
Cav2.3 (pIC50): 5.37

CN([C@@H](c1ccc(F)cc1)C(F)(F)F)S(=O)(=O)C1CCOCC1 [Example 131, (S)—N-methyl-N-(2,2,2-trifluoro-1-(4-fluorophenyl)ethyl)tetrahydro-2H-pyran-4-sulfonamide]
Cav2.3 (pIC50): 5.12

From patent US20250115569A1, “SULFONAMIDE COMPOUNDS FOR THE TREATMENT OF NEUROLOGICAL CONDITIONS” (LARIO THERAPEUTICS LIMITED, priority 2021, published 2025)
